Data published in patent publication US8410075B2, “Mannich base N-oxide drugs” (Cascade Prodrug Inc., priority 2007, dated 2013).
Values belong to the compound of their own block, whether it stands above or below them.

How the values were obtained:
[1] = observed by Sloan et al.; could not be isolated as a stable molecule; cited from earlier work
[2] = Rearrangement of Mannich base N-oxides to O-substituted hydroxylamine isomers in solution (NMR); assay type: physicochemical; details: for conversion to rearranged product 20: chloroform solution at RT for 72 h
Excerpt: Examples 5-14 describe the synthesis of several Mannich bases (structures B and structures G in Chart 1) and the corresponding Mannich base N-oxides (structures C and H). In cases where R═H in structure A, the synthesis of the rearranged N-oxide isomer D is also described. […] However, when R═H in A, the Mannich base N-oxide C (R═H) undergoes rearrangement over time to the corresponding isomer D. Rearrangement tends to be very slow (several days) in aqueous solution but more rapid (a few hours) in CDCl3 and depends to some extent on which secondary amine was used to prepare the Mannich base. In one case, the hydrochloride salt (structure E) of a Mannich base N-oxide C where R═H was prepared. Mannich base N-oxide salt E was stable toward rearrangement.
N-(Dimethyl-N′-oxido-aminomethyl)-benzamide (13) and N-(Dimethyl-aminooxymethyl)-benzamide (14). Mannich base 12 (0.18 g, 0.001 mol) was dissolved in dichloromethane (5 mL) and then solid MCPBA (0.26 g, 0.0015 mol) was added to the stirred solution in an ice/water bath. After stirring for 20 min as the solution warmed to RT, the solvent was evaporated. The residue was chromatographed on a Chromatotron with dichloromethane/methanol as eluent. Evaporation of the eluent in the cold is accompanied by rearrangement, giving 150 mg (66%) of the mixture Mannich base N-oxide 13 (Rf˜0.2 in dichloromethane/methanol, 5:1) and the rearranged benzamide derivative 14 (Rf˜0.8 in dichloromethane/methanol, 5:1). A sample of the mixture was allowed to stand in CDCl3 at RT while it was monitored by ^1H NMR.
N-(Piperidin-1-oxido-1-yl-methyl)-benzamide (16) and N-(Piperidin-1-yloxymethyl)-benzamide (17). Mannich base 15 (0.2 g, 0.92 mmol) was dissolved in 2 mL of dichloromethane and then the solution was added to a stirred solution of MCPBA (0.24 g, 1. 14 mmol) in 2 mL of dichloromethane in an ice/water bath. After 5 min of stirring at RT, the solvent was evaporated and the residue was chromatographed on a Chromatotron with dichloromethane/methanol mixture, 5:1 to 5:3 as eluent. The desired fractions were combined and the solvents were evaporated to give Mannich base N-oxide 16 (0.15 g, 72% yield). […] The ^1H and ^13C NMR spectra of 17 are consistent with the assigned structure. […] It was difficult to get clean NMR spectra of 16 in any solvent.
N-(Morpholin-4-oxido-4-ylmethyl)-benzamide (19) and N-(Morpholin-4-oxido-4-ylmethyl)-benzamide Hydrochloride (21) and N-(Morpholin-4-yloxymethyl)-benzamide (20). Mannich base 18 (0.283 g, 1.3 mmol) was dissolved in dichloromethane (6 mL) and the solution was cooled in an ice/water bath. To this stirred solution MCPBA (0.3 g, 1.7 mmol) was added as a solid. After 10 min the reaction mixture was divided in half. The first half was evaporated and chromatographed on a Chromatotron with dichloromethane/methanol 5:0.5 to 5:2 as eluent giving mostly rearranged product 20 (0.1 g, 67%). […] The ^1H and ^13C NMR spectra of 20 were consistent with the assigned structure. APCI MS (m/z): Calcd. for 20, C12H17N2O3 (M+1) 236.1; Found 236.1 A sample of 20 was recrystallized from EtOAc/hexanes giving crystals that were subject to x-ray analysis.
The second half of the MCPBA oxidation solution was extracted with 1N HCl. The water layer was evaporated to dryness and then the residue was treated with dichloromethane and re-evaporated to give the N-oxide HCl salt 21 (0.11 g, 73%) as a waxy solid which was stable in CDCl3 solution for several days. The ^1H NMR spectra were consistent with the assigned structure. […] A sample of 21 was recrystallized from MeOH/Et2O giving crystals that were subject to x-ray analysis. APCI MS (m/z APCI MS (m/z): Calcd. 21 C12H17N2O3 (M+1) 236.1; Found 236.1.

[3] = Hydrolysis of Mannich bases; assay type: physicochemical
Procedure: We observed that indole-derived Mannich bases 30, 32 and 34, unlike the other Mannich bases herein described, were quite stable toward hydrolysis. For example, only 30% of Mannich base 34 was hydrolyzed after 80 h in D2O.

[4] = Stability of Mannich base N-oxides in D2O monitored by 1H NMR; assay type: physicochemical; details: for at least several days
Procedure: The mixture of 3 and 4 was rechromatographed on a Chromatotron with 5:3:0.3 dichloromethane/methanol/ammonia as eluent to give 200 mg (22%) of the N^3 isomer 3 (faster moving isomer on TLC) which was pure by TLC, ^1H and ^19F NMR spectroscopy. The ^1H and ^19F NMR spectra of 3 (D2O) were consistent with the assigned structure. APCI MS (m/e): Calcd. for C9H12FN3O4 (M+H), 246.0; found (M+H) 246.0. Continued elution gave 140 mg (15% yield) of the N^1 isomer 4 (slower moving spot on TLC), which was pure by TLC, ^1H and ^19F NMR spectroscopy. APCI MS (m/e): Calcd. for C9H12FN3O4 (M+H), 246.0; found (M+H) 246.0. N-oxides 3, 4, and 5 were stable in D2O for at least several days as monitored by ^1H NMR spectroscopy. The structures of Mannich base N-oxides 3 and 4 were confirmed by single crystal x-ray analysis. Example 6

[5] = Reduction of 5-FU-derived Mannich base N-oxides with triphenylphosphine in CDCl3 and hydrolysis to 5-fluorouracil (1H and 19F NMR); assay type: physicochemical; details: mixture of N-oxides 3 and 4, 2 equiv triphenylphosphine in CDCl3 at RT, 70-h time period
Procedure: Triphenylphosphine is known to reduce N-oxides to the corresponding amines See Gallos, J. K. and Argyropoulos, N. G. Synthesis 1:83-86 (1991). A mixture of N-oxides 3 and 4 was dissolved in CDCl3 and then treated with 2 equiv of triphenylphosphine in CDCl3 at RT and monitored by ^1H and ^19F NMR spectroscopy. According to the ^1H and ^19F NMR spectra, the N-oxides underwent reduction and spontaneous hydrolysis to 5-fluorouracil to the extent of about 90% over a 70-h time period. Thus, not only are the N-oxide groups reduced back to the corresponding Mannich bases, but also the Mannich bases undergo hydrolysis back to 5-FU in the presence of adventitious water.

Compound: CN(C)Cn1cc(F)c(=O)n(CN(C)C)c1=O [Mannich base 6, 1,3-Bis-dimethylaminomethyl-5-fluoro-1H-pyrimidine-2,4-dione]
sensitivity toward hydrolysis [1]: very sensitive

Compound: O=c1c(F)cn(CN2CCOCC2)c(=O)n1CN1CCOCC1 [Mannich base 2, 5-Fluoro-1,3-bis-morpholin-4-ylmethyl-1H-pyrimidine-2,4-dione]
stability toward hydrolysis [3]: extreme sensitivity

Compound: CN(C)Cn1ccc2ccccc21 [Mannich base 32, N-(Dimethylaminomethyl)-indole]
stability toward hydrolysis [3]: quite stable

Compound: O=c1[nH]cc(F)c(=O)n1C[N+]1([O-])CCOCC1 [Mannich base N-oxide 3, 5-Fluoro-3-(4-oxido-morpholin-4-yl-methyl)-1H-pyrimidine-2,4-dione]
stability in D2O [4]: stable
extent of reduction and spontaneous hydrolysis to 5-fluorouracil [5]: about 90%

Other lines, results leading:

rearranged product 17 in 1H NMR spectrum ([2]; D2O): 10-20%
onset of rearrangement of 16 to 17 ([2]; after adding CDCl3): starts immediately
Compound: O=C(NC[N+]1([O-])CCCCC1)c1ccccc1 [Mannich base N-oxide 16, N-(Piperidin-1-oxido-1-yl-methyl)-benzamide]

conversion to the rearranged product ([2]; CDCl3 at RT, over several hours, 1H NMR): Essentially complete conversion
Compound: N-(Dimethyl-N′-oxido-aminomethyl)-benzamide [Mannich base N-oxide 13]

stability in CDCl3 solution ([2]; CDCl3 solution, several days): stable
conversion to rearranged product 20 [2]: no rearranged product 20 was formed
Compound: Cl.O=C(NC[N+]1([O-])CCOCC1)c1ccccc1 [N-oxide HCl salt 21, N-(Morpholin-4-oxido-4-ylmethyl)-benzamide Hydrochloride]

stability in D2O [4]: stable
extent of reduction and spontaneous hydrolysis to 5-fluorouracil [5]: about 90%
Compound: O=c1[nH]c(=O)n(C[N+]2([O-])CCOCC2)cc1F [Mannich base N-oxide 4, 5-fluoro-1-(4-oxido-morpholin-4-yl-methyl)-1H-pyrimidine-2,4-dione]

stability in D2O [4]: stable
Compound: O=c1c(F)cn(C[N+]2([O-])CCOCC2)c(=O)n1C[N+]1([O-])CCOCC1 [Mannich base N-oxide 5, 5-fluoro-1,3-bis-(4-oxido-morpholin-4-yl-methyl)-1H-pyrimidine-2,4-dione]

conversion to rearranged product 20 [2]: clean conversion
Compound: O=C(NC[N+]1([O-])CCOCC1)c1ccccc1 [Mannich base N-oxide 19, N-(Morpholin-4-oxido-4-ylmethyl)-benzamide]
